# In publication PMC12446003, “Pharmacological characterization of linaprazan glurate (X842), a novel potassium-competitive acid blocker, in vitro and in vivo” (Frontiers in Pharmacology, 2025):
# Where two headings read alike, the source gives them in different places.
# What was measured:
# gastric pH = assay: Phase I gastric pH holding time ratio; type: in vivo, humans; conditions: unpublished Phase I data
# [1] = system: histamine-stimulated acid secretion in pylorus-ligated rats; assay: Histamine-stimulated acid secretion in pylorus-ligated rat models; type: in vivo, Sprague-Dawley rats; conditions: histamine 30 mg/kg s.c., pylorus-ligated male rats
# Method: 1.1 Histamine-stimulated acid secretion in pylorus-ligated rat models
# The rats were fasted overnight with ad libitum access to water. Vehicle or X842 (2 mg/kg, 8 mg/kg) was administered orally to male Sprague-Dawley rats using a feeding catheter ina blinded manner. One hour after dosing, the pylorus was ligated under isoflurane anesthesia, and histamine (30 mg/kg/10 mL) was immediately administered subcutaneously. At 3 hours after histamine administration, the rats were sacrificed by carbon dioxide asphyxiation. The gastric contents were collected from the removed stomach. The gastric contents were collected and centrifuged at 3000 rpm for 10 minutes. The volume of each sample was measured, the gastric acid concentration was determined by acid-base titration, and the total acidity was […]
# 2.Supplementary Figures and Tables
# 2.1 Supplementary Figures
# [2] = Pharmacokinetic assessment of X842 in dogs (IV, single oral, repeated oral); type: in vivo; conditions: beagle, dog, plasma; for half-life at 1 day: read-out: t1/2 Day 1 (converted); for half-life at 7 day: read-out: t1/2 Day 7 (converted)
# Method: Pharmacokinetic assessments were conducted by Shanghai Medicilon Inc. Using C18 solid-phase extraction (Shimadzu UFLC-20A, ACE 3, C18, 3.0 µm, 150 × 4.6 mm; Shimadzu, Japan) with the following conditions: mobile phase A: 1 M ammonium acetate in water, mobile phase B: 100% acetonitrile; gradient 0–5 min: 100% A, 5–30 min: 85% A, 35–63 min: 75% A, 63–65 min: 55% A, 65–70 min: 0% A, 72–87 min: 100% A; flow rate 0.7 mL/min; column temperature 30 °C ([Weidof and Covey, 1992]). […] Bioavailability was calculated as F (%) = (Doseiv × AUCpo(0–24h)) ÷ (Dosepo × AUCiv (0–24h)) × 100%, where “po” represents oral administration and “iv” represents intravenous administration.
# Male and female Beagle dogs weighing around 9 kg were arbitrarily selected for testing. Food and water were provided ad libitum, except during overnight fasting (15–16 h) prior to oral drug administration ([Adebowale et al., 2002]). X842 were dissolved in the PEG400/ethanol/Solutol/water mixture (40:10:5:45% v/v) and methane sulfonic acid was used to adjust to pH 3, yielding solutions with concentrations of 0.3 mg/mL, 1.2 mg/mL, and 4.8 mg/mL for oral administration. There were four rounds of drug administration. One week was required between the rounds of testing according to the conditions for of animal welfare maintenance. For IV injection, a drug solution with a concentration of 0.3 mg/mL was prepared and filtered through a 0.22-μm filter. Blood samples were collected via the jugular vein using the same procedures as were used for the rat experiments. Following centrifugation, the plasma was transferred to clean tubes and stored at −80 °C until further analysis. All animals were euthanized by phenobarbital injection after the final blood sample collection. Pharmacokinetic assessments were conducted as described in 2.2.1.
# rats = assay: Toxicity in rats (data to be published); type: in vivo
# dogs = assay: Toxicity in dogs (data to be published); type: in vivo
# [3] = system: gastric acid secretion in pylorus-ligated rats; assay: Gastric acid inhibition in pylorus-ligated rats; type: in vivo
# Method: The rats were fasted overnight with ad libitum access to water. Drugs and vehicle were administered orally to rats in a blinded manner. The pylorus was ligated under ether anesthesia within 1 h after drug and vehicle administration, and the abdomen was closed by suturing. At 4 h after pyloric ligation, the rats were sacrificed by CO2 asphyxiation, and the stomach was removed ([Hori et al., 2010]). The gastric contents were collected and centrifuged at 3,000 rpm for 10 min. The volume of each sample was measured, the gastric acid concentration was determined by acid-base titration, and the total acidity was calculated.
# acid secretion = system: acid secretion; design: method as in Gedda et al., 2007; Scarpignato and Hunt, 2024; conditions: rats; ref Gedda et al., 2007; Scarpignato and Hunt, 2024; cited from earlier work
# [4] = 1.2 mg/kg, female dogs, repeat oral X842, Day 1, analyte as labelled
# [5] = 1.2 mg/kg, female dogs, repeat oral X842, Day 7, analyte as labelled
# [6] = 1.2 mg/kg, male dogs, 7 days of repeat oral X842, Day 1, analyte as labelled
# [7] = 1.2 mg/kg, male dogs, 7 days of repeat oral X842, Day 7, analyte as labelled
# [8] = 1.2 mg/kg, male dogs, repeat oral X842, Day 1, analyte as labelled
# [9] = 1.2 mg/kg, male dogs, repeat oral X842, Day 7, analyte as labelled
# [10] = female dogs, intravenous X842 0.3 mg/kg, analyte as labelled
# [11] = female dogs, intravenous X842 0.3 mg/kg, analyte as labelled, read-out: t1/2 (converted)
# [12] = female dogs, single oral X842 0.3 mg/kg, analyte as labelled
# [13] = female dogs, single oral X842 1.2 mg/kg, analyte as labelled
# [14] = female dogs, single oral X842 1.2 mg/kg, analyte as labelled, read-out: t1/2 (converted)
# [15] = female dogs, single oral X842 4.8 mg/kg, analyte as labelled
# [16] = female dogs, single oral X842 4.8 mg/kg, analyte as labelled, read-out: t1/2 (converted)
# [17] = male dogs, intravenous X842 0.3 mg/kg, analyte as labelled
# [18] = male dogs, intravenous X842 0.3 mg/kg, analyte as labelled, read-out: t1/2 (converted)
# [19] = male dogs, single oral X842 0.3 mg/kg, analyte as labelled
# [20] = male dogs, single oral X842 1.2 mg/kg, analyte as labelled
# [21] = male dogs, single oral X842 1.2 mg/kg, analyte as labelled, read-out: t1/2 (converted)
# [22] = male dogs, single oral X842 4.8 mg/kg, analyte as labelled
# [23] = male dogs, single oral X842 4.8 mg/kg, analyte as labelled, read-out: t1/2 (converted)
# [24] = female, iv, 0.3 mg/kg, female dogs, intravenous X842 0.3 mg/kg, analyte as labelled, read-out: AUC(0-24h)
# [25] = female, po, 0.3 mg/kg, female dogs, single oral X842 0.3 mg/kg, analyte as labelled, read-out: AUC(0-24h)
# [26] = female, po, 1.2 mg/kg, female dogs, repeat oral X842, Day 1, analyte as labelled, read-out: AUC(0-24h) Day 1
# [27] = female, po, 1.2 mg/kg, female dogs, repeat oral X842, Day 7, analyte as labelled, read-out: AUC(0-24h) Day 7
# [28] = female, po, 1.2 mg/kg, female dogs, single oral X842 1.2 mg/kg, analyte as labelled, read-out: AUC(0-24h)
# [29] = female, po, 4.8 mg/kg, female dogs, single oral X842 4.8 mg/kg, analyte as labelled, read-out: AUC(0-24h)
# [30] = male, iv, 0.3 mg/kg, male dogs, intravenous X842 0.3 mg/kg, analyte as labelled, read-out: AUC(0-24h)
# [31] = male, po, 0.3 mg/kg, male dogs, single oral X842 0.3 mg/kg, analyte as labelled, read-out: AUC(0-24h)
# [32] = male, po, 1.2 mg/kg, male dogs, repeat oral X842, Day 1, analyte as labelled, read-out: AUC(0-24h) Day 1
# [33] = male, po, 1.2 mg/kg, male dogs, repeat oral X842, Day 7, analyte as labelled, read-out: AUC(0-24h) Day 7
# [34] = male, po, 1.2 mg/kg, male dogs, single oral X842 1.2 mg/kg, analyte as labelled, read-out: AUC(0-24h)
# [35] = male, po, 4.8 mg/kg, male dogs, single oral X842 4.8 mg/kg, analyte as labelled, read-out: AUC(0-24h)
smiles,measurement,setting,value
"Cc1cccc(C)c1CNc1cc(C(=O)NCCOC(=O)CCCC(=O)O)cn2c(C)c(C)nc12 [X842, linaprazan glurate]",Gastric pH ≥4 holding time ratio (HTR),"gastric pH; oral doses ≥50 mg, throughout the 24-h period",> 50%
same,"Gastric pH ≥4 holding time ratio (HTR), nocturnal","gastric pH; oral doses ≥100 mg, nocturnal periods (12–24 h)",> 50%
same,Total acidity inhibitory rate (%),[1]; oral 2 mg/kg,66%
same,Total acidity inhibitory rate (%),[1]; oral 8 mg/kg,71%
same,Cmax at 1 day,[2]; [4],138 ± 7.6 ng/mL
same,half-life at 1 day,[2]; [4],1.1 ± 0.2 h
same,Cmax at 7 day,[2]; [5],47.2 ± 10.6 ng/mL
same,half-life at 7 day,[2]; [5],2 ± 1.2 h
same,half-life at 1 day,[2]; [6],2.01 ± 0.73 h
same,half-life at 7 day,[2]; [7],8.6 ± 10.8 h
same,Cmax at 1 day,[2]; [8],26.3 ± 21.6 ng/mL
same,Cmax at 7 day,[2]; [9],15.6 ± 10.4 ng/mL
same,Cmax,[2]; [10],694 ± 225 ng/mL
same,half-life,[2]; [11],0.7 ± 0.1 h
same,Cmax,[2]; [12],6.1 ng/mL
same,Cmax,[2]; [13],37.5 ± 7.6 ng/mL
same,half-life,[2]; [14],1.2 ± 0.2 h
same,Cmax,[2]; [15],271 ng/mL
same,half-life,[2]; [16],2.7 ± 2.2 h
same,half-life,"[2]; female dogs, single oral dose, read-out: t1/2 (range over doses)",2.1 to 3.2 h
same,Cmax,[2]; [17],745 ± 157 ng/mL
same,half-life,[2]; [18],0.5 ± 0.1 h
same,Cmax,[2]; [19],5.3 ± 4 ng/mL
same,Cmax,[2]; [20],26.3 ng/mL
same,half-life,[2]; [21],2 ± 0.7 h
same,Cmax,[2]; [22],355 ng/mL
same,half-life,[2]; [23],3.4 ± 2.2 h
same,half-life,"[2]; male dogs, single oral dose, read-out: t1/2 (range over doses)",2 to 3.4 h
same,half-life,"[2]; both sexes, 0.3 mg/kg, dogs, IV administration, similar between the sexes, read-out: t1/2 (converted)",~0.6 h
same,AUC(0-t),[2]; [24],343 ± 125 ng·h/mL
same,AUC(0-t),[2]; [25],5.1 ± 3.3 ng·h/mL
same,AUC(0-t),[2]; [26],72.3 ± 18.3 ng·h/mL
same,AUC(0-t),[2]; [27],69.4 ± 54.1 ng·h/mL
same,AUC(0-t),[2]; [28],72.3 ng·h/mL
same,AUC(0-t),[2]; [29],504 ng·h/mL
same,AUC(0-t),[2]; [30],361 ± 118 ng·h/mL
same,AUC(0-t),[2]; [31],5.2 ± 2.3 ng·h/mL
same,AUC(0-t),[2]; [32],65.1 ± 51.2 ng·h/mL
same,AUC(0-t),[2]; [33],35.4 ± 8.7 ng·h/mL
same,AUC(0-t),[2]; [34],65.1 ng·h/mL
same,AUC(0-t),[2]; [35],889 ng·h/mL
same,"Adverse effects (acute, reproductive, teratogenic, carcinogenic toxicity)",rats,No significant adverse effects
same,"Adverse effects (acute, reproductive, teratogenic, carcinogenic toxicity)",dogs,No significant adverse effects
same,Duration of acid suppression,[3]; after a single oral dose,at least 24 h
same,Total acidity inhibitory rate (%),"[3]; oral 0.15 mg/kg, pylorus-ligated rats (not significant)",6%
same,Total acidity inhibitory rate (%),"[3]; oral 0.5 mg/kg, pylorus-ligated rats",44%
same,Total acidity inhibitory rate (%),"[3]; oral 1.0 mg/kg, pylorus-ligated rats",61%
same,Total acidity inhibitory rate (%),"[3]; oral 1.5 mg/kg, pylorus-ligated rats",85%
same,Dose required for 50% inhibition (ID50),"[3]; oral, pylorus-ligated rats, total gastric acid",0.55 mg/kg
Cc1cccc(C)c1CNc1cc(C(=O)NCCO)cn2c(C)c(C)nc12 [linaprazan],Duration of inhibitory effect on acid secretion,acid secretion,24 h
same,Cmax at 1 day,[2]; [4],67.2 ± 4.7 ng/mL
same,half-life at 1 day,[2]; [4],3.2 ± 0.42 h
same,Cmax at 7 day,[2]; [5],65 ± 4.7 ng/mL
same,half-life at 7 day,[2]; [5],5.1 ± 1.1 h
same,half-life at 1 day,[2]; [6],2.8 ± 0.2 h
same,half-life at 7 day,[2]; [7],3.8 ± 0.4 h
same,Cmax at 1 day,[2]; [8],82.8 ± 56.5 ng/mL
same,Cmax at 7 day,[2]; [9],67.5 ± 23.9 ng/mL
same,Cmax,[2]; [10],30.6 ± 6.2 ng/mL
same,half-life,[2]; [11],1.6 ± 0.2 h
same,Cmax,[2]; [12],10.4 ± 1.4 ng/mL
same,half-life,"[2]; female dogs, single oral X842 0.3 mg/kg, analyte as labelled, read-out: t1/2 (converted)",2.1 ± 0.4 h
same,Cmax,[2]; [13],67.2 ± 4.7 ng/mL
same,half-life,[2]; [14],3.2 ± 0.42 h
same,Cmax,[2]; [15],535 ± 149 ng/mL
same,half-life,[2]; [16],2.2 ± 0.9 h
same,Cmax,[2]; [17],45.5 ± 21.4 ng/mL
same,half-life,[2]; [18],1.5 ± 0.25 h
same,Cmax,[2]; [19],15.8 ng/mL
same,half-life,"[2]; male dogs, single oral X842 0.3 mg/kg, analyte as labelled, read-out: t1/2 (converted)",2.2 ± 0.7 h
same,Cmax,[2]; [20],82.8 ± 56.5 ng/mL
same,half-life,[2]; [21],2.8 ± 0.2 h
same,Cmax,[2]; [22],851 ± 116 ng/mL
same,half-life,[2]; [23],2.6 ± 0.2 h
same,AUC(0-t),[2]; [24],106 ± 13.9 ng·h/mL
same,AUC(0-t),[2]; [25],48.7 ± 7.4 ng·h/mL
same,AUC(0-t),[2]; [26],412 ± 166 ng·h/mL
same,AUC(0-t),[2]; [27],508 ± 41.8 ng·h/mL
same,AUC(0-t),[2]; [28],412 ng·h/mL
same,AUC(0-t),[2]; [29],2920 ng·h/mL
same,AUC(0-t),[2]; [30],170 ± 26.2 ng·h/mL
same,AUC(0-t),[2]; [31],77.8 ± 66.8 ng·h/mL
same,AUC(0-t),[2]; [32],436 ± 272 ng·h/mL
same,AUC(0-t),[2]; [33],439 ± 81.6 ng·h/mL
same,AUC(0-t),[2]; [34],436 ng·h/mL
same,AUC(0-t),[2]; [35],4850 ng·h/mL
